Assay results reported in the NIST ThermoML archive (doi:10.1021/je7003337).
Numbers after ± are expanded uncertainties.

Assay: refractive index (Na D-line) (dimensionless)
Conditions: 298.15 K; 101.33 kPa; Liquid; Standard Abbe refractometry

SMILES | refractive index
Cc1ccc(C)cc1 [1,4-dimethylbenzene] | 1.49321 ± 0.00072
CCCCCC [hexane] | 1.37226 ± 0.00072
